The values that follow come from patent US9777037B2, “Neurosteroid compounds” (BIONATURE E. A. LTD., priority 2007, dated 2017).

Assay [1] relates to Neural-crest derived PC12 cells. The assay can be described thus: APOPercentage apoptosis assay, serum-deprivation induced apoptosis of PC12 cells. The format is cell-based, rat. As to conditions: Rattus norvegicus, PC-12, absence of serum 12 hours, ApoPercentage assay (FIG. 2), read-out: IC50 of anti-apoptotic, cytoprotective effect. As for the experimental part: Neural-crest derived PC12 cells were maintained in culture at 5% CO2, at 37° C., in RPMI 1640 medium containing 2 mM L-glutamine, 15 mM HEPES, 100 units/ml penicillin, 0.1 mg/ml streptomycin, 10% horse serum, and 5% foetal calf serum. Serum free medium was supplemented with 1% bovine serum albumin (BSA). Different steroids, used at various concentrations, were initially diluted in ethanol. The final concentration of ethanol in each well, including controls was 0.01%. Conjugate DHEA-BSA was initially diluted in Phosphate Buffer Saline (PBS).
Cells were cultured in the absence of serum for 12 hours, supplemented with DHEA and various synthetic spiro neurosteroids at 10 nM. Cell apoptosis was quantitated with two different methods: The APOPercentage Apoptosis Assay (Biocolor Ltd., Belfast, N. Ireland) was used to quantify apoptosis, according to the manufacturer's instructions. Apoptosis was quantified following cell lysis by measuring the dye incorporated in apoptotic cells at 550 nm (reference filter 620 nm) using a colour filter microplate colorimeter (Dynatech MicroElisa reader, Chantilly, Va.) (see FIGS. 1 and 2). FACS Analysis: FACS analysis of apoptotic cells was performed according to our protocol (Proc Natl Acad Sci USA 101,8209 (2004)). Flow cytometry was performed with FACScan (Becton Dickinson, Heidelberg, Germany) and the results were analysed with the FACScan and Cell Quest softwares (see FIG. 3).

For assay [2], the system named is Bcl-2 and Bcl-xL proteins. The assay can be described thus: Western blot of anti-apoptotic Bcl-2 and Bcl-xL proteins in serum-deprived PC12 cells. Format: cell-based, rat. The note with it: 10 nM neurosteroid (FIG. 4). As for the experimental part: Neural-crest derived PC12 cells were cultured for 8 hours in the absence of serum, but supplemented with 10 nM of various neurosteroids. At the end of incubation cell lysates were subjected to electrophoresis through a 12% SDS-polyacrylamide gel. Then, proteins were transferred to nitrocellulose membranes, which were processed according to standard Western blotting procedures. To detect protein levels, membranes were incubated with the appropriate antibodies: Bcl-2, (Santa Cruz Biotechnology Inc., Santa Cruz, Calif., dilution 1:100) Bcl-xL (Cell Signalling Technology Inc., Beverly, Mass., dilution 1:100). A PC-based Image Analysis program was used to quantify the intensity of each band (Image Analysis, Inc., Ontario, Canada). To normalize for protein content, the blots were stripped and stained with anti-actin antibodies (Chemicon, Temecula, Calif., dilution 1:400); the concentration of each target protein was normalized versus actin.

The subject of assay [3] is DHEA specific membrane receptors. As to the kind of experiment: [3H]DHEA competition binding on isolated PC12 cell membranes. Details: species or system rat. As for the experimental part:
PC12 rat sympathoadrenal cells were cultured in 225 cm^2 flasks and, after washing twice with PBS, they were detached from the flasks by vigorous shaking. After a centrifugation at 1500 g, they were homogenized by sonication, in a 50 mM Tris-HCl buffer pH 7.4 at 4° C., containing freshly added protease inhibitors (1 mM PMSF and 1 μg/ml aprotinin). Unbroken cells were removed by centrifugation at 1500 g (10 min at 4° C.), and membranes were collected by centrifuging at 102,000 g for 1 hr at 4° C. Membranes were washed once with Tris-HCl, briefly acidified at 4° C. (for 3 min) with 50 mM glycine (pH 5.0), and re-suspended in the same buffer. Protein content was assayed by the method of Bradford, using reagents from Bio-Rad (Hercules, Calif.). Membranes (at a final concentration of 2 mg/ml) were incubated with 5 nM [^3H]DHEA, in the absence (to determine the total binding) or presence of unlabeled neurosteroids and their synthetic spiro analogs, at concentrations varying from 10^−12 to 10^−6 M and at a final volume of 100 μl, in Tris-HCl buffer (50 mM, pH 7.4). Following a […] incubation in a water bath, at 37° C., membranes were collected on GF/B filters, prewet in 0.5% PEI solution at 4° C. The filters were washed three times with ice-cold Tris-HCl, dried, supplemented with scintillation medium (Sigma Hellas, Athens, Greece) and counted in a β-scintillation counter (Perkin Elmer, Foster City, Calif.) with 60% efficiency for Tritium.

Assay [4] concerns Dopaminergic neural-crest derived PC12 cells. The assay can be described thus: Dopamine secretion from dopaminergic PC12 cells (radioimmunoassay). The format is cell-based, rat. The note with it: 10^-7 M. Here is the method: Dopaminergic neural-crest derived PC12 cells were grown in 6-well plates, coated with poly-L-lysine, at a concentration of 10^6 cells/well. Cells were incubated with neurosteroids or the vehicle for several time periods; for the short-term experiments the incubation time ranged from 5 to 30 minutes and for the long-term from 3 to 48 hours. 1 mL of supernatants were transferred to tubes containing 200 μl 0.1 M HCl for measurement of dopamine, which was measured by radioimmunoassay (TriCat™ RIA, RE29395, IBL Immuno Biological Lab., Hamburg, Germany) using ^125I as a tracer. The analytical sensitivity of the method was 30 pg/ml, its intra-assay CV was 9.5%, and its inter-assay CV was 16.7%. The cross reactivity between dopamine and norepinephrine was <0.013%

Usually IC50 stands for the concentration that inhibits the measured activity by half. The term Kd denotes the equilibrium constant for the complex coming apart. As to `C[C@]12CC[C@H](O)CC1=CCC1C2CC[C@@]2(C)C1CC[C@@]21CO1` (stereo partly drawn) [BNN-50, 17β-spiro-[5-androsten-17,2′-oxiran]-3β-ol], in assay [1], the IC50 was 0.088 nM. Besides, the “levels of anti-apoptotic Bcl-2 and Bcl-xL proteins” value in assay [2] is on record as “preventing this effect”. Also, the “displacement of specific [3H]DHEA binding” value in assay [3] (at 1 μM, PC12 cell membranes) is “approximately 60%”. For the same molecule, binding in assay [3] (isolated PC12 cell membranes, 5 nM [3H]DHEA (FIG. 5)) was put at a Kd of 0.016 nM. For the same molecule, in assay [4] (3 to 48 hours (FIG. 6B)), the “dopamine levels in culture media, long-term” value is “increase of dopamine levels peaking at 24 h”. The “stimulation of dopamine secretion, short-term” value in assay [4] (5 to 30 min, effect within 10 min (FIG. 6A)) is “doubling their levels”.
